Data published in US7186784B2, “Phosphorus-containing carboxylic acid derivatives process for preparations thereof and flame retardant” (NOF Corporation, priority 2001, dated 2007).

What was measured:
[1] = Storage stability test in blend with epoxy resin YDPN 638; settings: 1:1 by weight with epoxy resin YDPN 638, room temperature; for Stability Test: 30 days, viscosity increase observed visually
From the text: Then a visual observation was made about an increase in the viscosity thereof.

[2] = Dissolution on preparing the resin composition; assay type: physicochemical; settings: 20.0 parts M-Acid with Epicote 828, CIC acid derivative and Nofcure-LC-1, mixed in a vial
From the text: An attempt was made to prepare a resin composition by mixing and agitating in a vial, 5.06 parts by weight of Epicote 828, 4.94 parts by weight of a derivative from CIC acid by n-propylvinyl ether, 20.0 parts by weight of unmodified M-Acid and 0.21 parts by weight of Nofcure-LC-1. However, the M-Acid was not dissolved, thereby forming non-homogeneous and opaque suspension.

| Compound | Stability Test: time before hardening (figure in parentheses) [1] | Stability Test [1] | dissolution in resin composition [2] |
| --- | --- | --- | --- |
| CCOP(=O)(CC(CC(=O)O)C(=O)O)OCC (stereo not shown) [DEHP-ItaA] | 5 min | Hardened | – |
| O=C(O)CC(CP(=O)(Oc1ccccc1)Oc1ccccc1)C(=O)O (stereo not shown) [Ref. Example. 7] | 5 min | Hardened | – |
| O=C(O)CCC(CC(=O)O)(C(=O)O)P(=O)(O)O (stereo not shown) [PBTC, 2-phosphonobutane-1,2,4-tricarboxylic acid] | 15 min | Hardened | – |
| O=C(O)CC(CP1(=O)Oc2ccccc2-c2ccccc21)C(=O)O (stereo not shown) [M-Acid] | – | – | not dissolved |
